Assay results published in patent publication US20120028252A1, “HUMAN MENA ISOFORMS SERVE AS MARKERS OF EPITHELIAL TO MESENCHYMAL TRANSITION AND SENSITIVITY TO EGFR INHIBITION IN HUMAN CANCER CELLS” (priority 2008, published 2012).

Key:
Panc1 cells = experiment: Proliferation assay after hMena siRNA knock-down, Panc1; type: cell-based, human; conditions: hMena siRNA construct (48 h) plus erlotinib (100 nM, 24 h)
Method: (§1) Silencing of hMena reduces the baseline growth rate in BxPC3 compared with the growth rate of untransfected cells and cells transfected with non specific siRNA (45% vs 100%, P<0.01). […] Proliferation assays were conducted 72 h after the siRNA transfection.
(§2) Proliferation assays. Cell proliferation was determined by measurement of cellular ATP levels with a high sensitivity cell proliferation/cytotoxicity kit (Vialight Plus, Cambrex Bio Sci Rockland Inc., Rockland, Me.). Briefly, cells were plated in 96-well plates at a density of 1×10^4 per well and exposed 24 hours later to various concentrations of erlotinib (0.1-10 μmol/L) in serum-free media. After 24 hours nucleotide (ATP) releasing reagent (100 μl) was added to each well and the plate was incubated for 10 min at room temperature. Cell lysate (180 μl) was transferred to a luminescence compatible plate. The 96-well plates were read using a Perkin Elmer LS 50B luminometer. ATP levels in cells were normalized to levels in untreated control cultures.
(§3) Small interfering RNA treatment. Cells in exponential growth phase were transfected with 100 nmol/L hMena-specific pooled small interfering RNA (siRNA) duplexes (siENA SMART pool) or control non-specific siRNA (Dharmacon, Lafayette, Colo.) using LipofectAMINE 2000 reagent (Invitrogen, Paisley, United Kingdom). […]

[1] = tested on: PT45 pancreatic cancer cell line; experiment: Proliferation assay (cellular ATP, Vialight); type: cell-based, human; conditions: erlotinib 10 μmol/L
Method: (§5) The effects of increasing concentrations of erlotinib (0.1 to 10 μmol/L) on cell proliferation were assessed by measuring the intracellular ATP content using the Vialight assay. Results are expressed as percentage inhibition of ATP incorporation relative to untreated cells. […] Cell proliferation was determined by measurement of cellular ATP levels with a high sensitivity cell proliferation/cytotoxicity kit (Vialight Plus, Cambrex Bio Sci Rockland Inc., Rockland, Me.). Briefly, cells were plated in 96-well plates at a density of 1×10^4 per well and exposed 24 hours later to various concentrations of erlotinib (0.1-10 μmol/L) in serum-free media. After 24 hours nucleotide (ATP) releasing reagent (100 μl) was added to each well and the plate was incubated for 10 min at room temperature. Cell lysate (180 μl) was transferred to a luminescence compatible plate. The 96-well plates were read using a Perkin Elmer LS 50B luminometer. ATP levels in cells were normalized to levels in untreated control cultures.

[2] = tested on: L3.6 μl human pancreatic cancer cell line; experiment: Proliferation assay (cellular ATP, Vialight); type: cell-based; conditions: erlotinib 1 μmol/L, 24 hours, serum-free media
Method: as §5

[3] = tested on: MiaPaCa-2 pancreatic cancer cell line; experiment: Proliferation assay (cellular ATP, Vialight); type: cell-based, human; conditions: erlotinib 10 μmol/L
Method: (§6) The effects of increasing concentrations of erlotinib (0.1 to 10 μmol/L) on cell proliferation were assessed by measuring the intracellular ATP content using the Vialight assay. Results are expressed as percentage inhibition of ATP incorporation relative to untreated cells. […] Proliferation assays. Cell proliferation was determined by measurement of cellular ATP levels with a high sensitivity cell proliferation/cytotoxicity kit (Vialight Plus, Cambrex Bio Sci Rockland Inc., Rockland, Me.). Briefly, cells were plated in 96-well plates at a density of 1×10^4 per well and exposed 24 hours later to various concentrations of erlotinib (0.1-10 μmol/L) in serum-free media. After 24 hours nucleotide (ATP) releasing reagent (100 μl) was added to each well and the plate was incubated for 10 min at room temperature. Cell lysate (180 μl) was transferred to a luminescence compatible plate. The 96-well plates were read using a Perkin Elmer LS 50B luminometer. ATP levels in cells were normalized to levels in untreated control cultures.

[4] = tested on: hMena and hMena^+11a protein in BxPC3 cells; experiment: Western blot of hMena expression after EGF and erlotinib treatment, BxPC3; type: cell-based, human
Method: (§4) Cell treatments. Cells were grown in six-well plates to confluence in RPMI supplemented with 10% fetal bovine serum. After 18 hours in serum-free medium, the cells were treated with different amounts of rhEGF (Promega) for 24 hours. Erlotinib (10 μmol/L) was added 2 hours before EGF treatment. Western blot analyses. Cells were lysed as reported (32). Lysates (30 or 100 μg) were resolved on 10% polyacrylamide gel and transferred to nitrocellulose membranes (GE Healthcare, Piscataway, N.J.). Membranes were blocked in 5% non-fat milk in Tris-buffered saline (TBS) containing 0.1% Tween 20 (TBS-T) for 1 hour at room temperature, incubated overnight with relevant antibodies, washed, and probed with species-specific secondary antibodies coupled to horseradish peroxidase, and detected by enhanced chemiluminescence (Amersham Biosciences).

[5] = tested on: BxPC3 pancreatic cancer cell line; experiment: Proliferation assay (cellular ATP, Vialight); type: cell-based; conditions: Homo sapiens, BXPC-3; erlotinib 1 μmol/L, 24 hours, serum-free media
Method: as §5

[6] = tested on: Panc1 pancreatic cancer cell line; experiment: Proliferation assay (cellular ATP, Vialight); type: cell-based, human; conditions: erlotinib 10 μmol/L
Method: as §6

[7] = tested on: T3M4 pancreatic cancer cell line; experiment: Proliferation assay (cellular ATP, Vialight); type: cell-based; conditions: Homo sapiens, erlotinib 1 μmol/L, 24 hours, serum-free media
Method: as §5

BxPC3 cells = experiment: Proliferation assay after hMena siRNA knock-down, BxPC3; type: cell-based, human
Method: as §1, §2, §3

[8] = tested on: PACA44 pancreatic cancer cell line; experiment: Proliferation assay (cellular ATP, Vialight); type: cell-based; conditions: Homo sapiens, PaCa-44; erlotinib 1 μmol/L, 24 hours, serum-free media
Method: as §5

[9] = tested on: Hs766T pancreatic cancer cell line; experiment: Proliferation assay (cellular ATP, Vialight); type: cell-based, human; conditions: erlotinib 10 μmol/L
Method: as §6

[10] = tested on: hMena and hMena^+11a in breast cancer cell lines; conditions: cited from earlier work
[11] = tested on: hMena and hMena^+11a protein in Panc1 cells; experiment: Western blot of hMena expression after EGF and erlotinib treatment, Panc1; type: cell-based, human; conditions: EGF 50 and 100 ng/ml, 24 hours
Method: as §4

Which “proliferation, combined exposure” value (Panc1 cells) does the source give for `C#Cc1cccc(Nc2ncnc3cc(OCCOC)c(OCCOC)cc23)c1` [erlotinib] here?
The value was “did not”.

And the growth rate [1]?
Its growth rate is “not significantly affected”.

What about the inhibition at 1 µM [2] of the same compound?
The inhibition at 1 µM was at least 50%.

What about the growth rate [3] of the same compound?
Its growth rate is “not significantly affected”.

And the hMena expression ([4]; erlotinib (10 μmol/L, 2 hours before EGF) added to EGF-treated BxPC3 cells)?
The hMena expression was “down regulated”.

What about the inhibition at 1 µM [5] of the same compound?
Its inhibition at 1 µM is at least 50%.

What about the growth rate [6] of the same compound?
Its growth rate is “not significantly affected”.

And the inhibition at 1 µM [7]?
Its inhibition at 1 µM is at least 50%.

And the “proliferation, combined exposure” value (BxPC3 cells; hMena siRNA construct (48 h) plus erlotinib (100 nM, 24 h), BxPC3)?
Its value is “additive decrease”.

And the cell proliferation (BxPC3 cells; hMena-silenced BxPC3 cells treated with erlotinib 0.1 μM/L for 24 h)?
Its cell proliferation is “dramatic decrease”.

What about the inhibition at 1 µM [8] of the same compound?
Its inhibition at 1 µM is at least 50%.

And the growth rate [9]?
Its growth rate is “not significantly affected”.

With `COc1cc2ncnc(Nc3cccc(Cl)c3)c2cc1OC` [AG1478] as the compound, how does the “EGF-promoted up-regulation of hMena and hMena^+11a and increase of phosphorylated hMena^+11a” value ([10]; pre-treatment of breast cancer cell lines before EGF) read?
The value was “inhibited”.

What does the source list for “EGF: Recombinant human EGF purchased from Promega (NSDSECPLSHDGYCLHDGVCMYIEALDKYACNCVVGYIGERCQYRDLKWWELR; UniProt P01133 971-1023, looked up)”?
hMena and hMena^+11a expression ([10]; EGF treatment of breast cancer cell lines): up-regulation; hMena^+11a expression and phosphorylation ([10]; HER2 activation by EGF and NRG1 treatment, breast cancer cell lines): up-regulation and phosphorylation; hMena and hMena^+11a protein level ([4]; EGF 50 and 100 ng/ml, 24 hours, BxPC3): clearly increased; hMena and hMena^+11a protein level [11]: clearly increased
